The source of these data is patent US12239662B2, “Compositions for inhibiting anaerobic microorganisms” (LPOXY THERAPEUTICS, INC, priority 2020, dated 2025).

The conditions of data set [1]: up to the maximum bolus tested, 200 microliters every 6 hours (8 mL/kg per bolus; 32 mL/kg/day). How it is done:
In a separate experiment using the above conditions the tolerance of bolus injection of 100% oxygen gas was tested.

Data set [2] relates to Clostridioides difficile ATCC 43255. The following applies: for onset of action: compared between treatment groups; for cure rate: no recurrence over 14 days after inoculation; for clinical severity and recovery: total clinical score and daily weights, compared to infection control group; for survival: treatment study day 0 to day 4, followed 14 days after inoculation, 10 mice per group.
Description: Thirty C57BL/6 female mice (18-22 g) fitted with duodenal catheters externalized and fitted with access button ports were purchased from Charles River Laboratories and singly housed in a temperature and humidity-controlled room with a 12-hour light cycle. The mice were divided into 3 groups of 10. All procedures used in these experimental protocols were in compliance with the Animal Welfare Act, the Guide for the Care and Use of Laboratory Animals, and the Office of Laboratory Animal Welfare.
The mice were pretreated with an antibiotic cocktail in their drinking water for 8 consecutive days. This antibiotic cocktail was composed of 1% glucose, 500 mcg/mL kanamycin, 44 mcg/mL gentamicin, 1062.5 units per milliliter colistin, 269 mcg/mL metronidazole, 156 mcg/mL ciprofloxacin, 100 mcg/mL ampicillin, and 56 mcg/mL vancomycin. The antibiotic cocktail and drinking water was replaced every 2 to 3 days. Five days prior to infection the antibiotic water was removed and normal drinking water was provided to the animals. Three days prior to infection the animals received a single dose of clindamycin 10 mg per kilogram via oral administration in a volume of 10 mL per kilogram.
On study Day 0 mice were inoculated with the bacterial suspension of 5×10^5 CFU Clostridioides difficile ATCC 43255 via oral gavage. Eight hours after inoculation administration of vehicle, antibiotic control, and test article was initiated according to the following. The vehicle a.k.a. infection control group of 10 mice received 80 μL per hour 100% pure nitrogen gas via duodenal catheter. The infection control group of 10 mice received 50 mg/kg vancomycin via oral gavage once daily. […] Administration was continued from study day 0 to study day 4, a total of 5 days. The mice were followed for 14 days after inoculum recording daily weights and clinical observations. Animals that appeared severely moribund were euthanized. At the end of the study all animals were humanely euthanized.

Read-outs that look alike come from different tables or passages of the source.

For the compound `O=O` [EAT, oxygen], the “adverse effects of bolus injection” value in data set [1] is given as “No adverse effects”. Also, in data set [2] (efficacy experiments, infusion 3.2 mL/kg/hr, 76.8 mL/kg/day via duodenal catheter), the “adverse effects due to gas infusion” value is reported as “no adverse effects”. In addition, in data set [2] (mouse CDI model), the onset of action entry is “slower onset of action”; the cure rate is 100%; the “clinical severity and recovery” value is given as “mildly ill compared to the infection control group, recover rapidly”; the survival is 100%. For the same compound, the “animals showing signs of infection in the 2nd week after inoculation and treatment (recurrence)” value in data set [2] (mouse CDI model, days 8-14, after treatment was complete) is recorded as “no recurrent infections”. Also, in data set [2] (mouse CDI model, listed as Enteric aerobization therapy), the “clinical severity and recovery” value is on record as “reduces the severity of disease, accelerates recovery”.

`CN[C@H](CC(C)C)C(=O)N[C@H]1C(=O)N[C@@H](CC(N)=O)C(=O)N[C@H]2C(=O)N[C@H]3C(=O)N[C@H](C(=O)N[C@H](C(=O)O)c4cc(O)cc(O)c4-c4cc3ccc4O)[C@H](O)c3ccc(c(Cl)c3)Oc3cc2cc(c3O[C@@H]2O[C@H](CO)[C@@H](O)[C@H](O)[C@H]2O[C@H]2C[C@](C)(N)[C@H](O)[C@H](C)O2)Oc2ccc(cc2Cl)[C@H]1O` [vancomycin, reference compound]: in data set [2] (mouse CDI model), the onset of action entry is “more rapid onset of action”, the cure rate was 30% and the survival is 100%.
